Test: mn = molality of the nth substance listed, in mol/kg
Conditions: 100 kPa, Liquid; for mass density: Vibrating tube method; for speed of sound: Frequency=2 MHz, Linear variable-path acoustic interferometer

CCCCn1cc[n+](C)c1.CC[C@H](C)[C@H](N)C(=O)[O-] [1-butyl-3-methyl-1H-imidazolium L-isoleucinate] + O
Conditions	mass density [kg/m3]	speed of sound [m/s]
293.15 K, m1 = 0.02906	999.041	–
293.15 K, m1 = 0.04398	999.456	–
293.15 K, m1 = 0.05752	999.834	–
293.15 K, m1 = 0.0722	1000.24	–
293.15 K, m1 = 0.07899	1000.43	–
293.15 K, m1 = 0.1182	1001.49	–
293.15 K, m1 = 0.1456	1002.23	–
293.15 K, m1 = 0.1662	1002.78	–
293.15 K, m1 = 0.1765	1003.05	–
293.15 K, m1 = 0.2502	1004.97	–
293.15 K, m1 = 0.2937	1006.09	–
293.15 K, m1 = 0.3356	1007.15	–
293.15 K, m1 = 0.3802	1008.26	–
298.15 K, m1 = 0.02906	997.851	–
298.15 K, m1 = 0.04398	998.255	–
298.15 K, m1 = 0.0472	–	1507.8
298.15 K, m1 = 0.05752	998.616	–
298.15 K, m1 = 0.0722	999.019	–
298.15 K, m1 = 0.07899	999.193	–
298.15 K, m1 = 0.1029	–	1519.2
298.15 K, m1 = 0.1182	1000.22	–
298.15 K, m1 = 0.1456	1000.93	–
298.15 K, m1 = 0.1481	–	1528.4
298.15 K, m1 = 0.1662	1001.47	–
298.15 K, m1 = 0.1765	1001.73	–
298.15 K, m1 = 0.1974	–	1538.3
298.15 K, m1 = 0.2422	–	1547.2
298.15 K, m1 = 0.2502	1003.6	–
298.15 K, m1 = 0.2927	–	1557.1
298.15 K, m1 = 0.2937	1004.66	–
298.15 K, m1 = 0.3356	1005.72	–
298.15 K, m1 = 0.3455	–	1567.6
298.15 K, m1 = 0.3802	1006.75	–
298.15 K, m1 = 0.3987	–	1578.2
298.15 K, m1 = 0.4518	–	1588.5
298.15 K, m1 = 0.5064	–	1599.2
303.15 K, m1 = 0.02906	996.433	–
303.15 K, m1 = 0.04398	996.821	–
303.15 K, m1 = 0.05752	997.168	–
303.15 K, m1 = 0.0722	997.554	–
303.15 K, m1 = 0.07899	997.73	–
303.15 K, m1 = 0.1182	998.731	–
303.15 K, m1 = 0.1456	999.436	–
303.15 K, m1 = 0.1662	999.965	–
303.15 K, m1 = 0.1765	1000.2	–
303.15 K, m1 = 0.2502	1002	–
303.15 K, m1 = 0.2937	1003.05	–
303.15 K, m1 = 0.3356	1004.06	–
303.15 K, m1 = 0.3802	1005.08	–
308.15 K, m1 = 0.03034	994.828	–
308.15 K, m1 = 0.0467	995.242	–
308.15 K, m1 = 0.05983	995.575	–
308.15 K, m1 = 0.07535	995.962	–
308.15 K, m1 = 0.09204	996.388	–
308.15 K, m1 = 0.121	997.102	–
308.15 K, m1 = 0.1452	997.702	–
308.15 K, m1 = 0.1832	998.629	–
308.15 K, m1 = 0.2191	999.468	–
308.15 K, m1 = 0.2631	1000.51	–
308.15 K, m1 = 0.2977	1001.31	–
308.15 K, m1 = 0.3367	1002.21	–
308.15 K, m1 = 0.3802	1003.17	–
313.15 K, m1 = 0.03034	992.995	–
313.15 K, m1 = 0.0467	993.401	–
313.15 K, m1 = 0.05983	993.731	–
313.15 K, m1 = 0.07535	994.106	–
313.15 K, m1 = 0.09204	994.515	–
313.15 K, m1 = 0.121	995.217	–
313.15 K, m1 = 0.1452	995.792	–
313.15 K, m1 = 0.1832	996.685	–
313.15 K, m1 = 0.2191	997.538	–
313.15 K, m1 = 0.2631	998.53	–
313.15 K, m1 = 0.2977	999.299	–
313.15 K, m1 = 0.3367	1000.18	–
313.15 K, m1 = 0.3802	1001.15	–

CCCCn1cc[n+](C)c1.NCC(=O)[O-] [1-butyl-3-methylimidazolium glycinate] + O
Conditions	mass density [kg/m3]	speed of sound [m/s]
293.15 K, m1 = 0.03911	999.516	–
293.15 K, m1 = 0.05766	1000.13	–
293.15 K, m1 = 0.07571	1000.71	–
293.15 K, m1 = 0.09405	1001.28	–
293.15 K, m1 = 0.1177	1002.03	–
293.15 K, m1 = 0.1634	1003.42	–
293.15 K, m1 = 0.2013	1004.58	–
293.15 K, m1 = 0.2535	1006.13	–
293.15 K, m1 = 0.2905	1007.2	–
293.15 K, m1 = 0.3496	1008.89	–
293.15 K, m1 = 0.4089	1010.57	–
293.15 K, m1 = 0.4607	1012	–
293.15 K, m1 = 0.5188	1013.58	–
298.15 K, m1 = 0.03911	998.332	–
298.15 K, m1 = 0.05112	–	1505.2
298.15 K, m1 = 0.05766	998.92	–
298.15 K, m1 = 0.07571	999.491	–
298.15 K, m1 = 0.09405	1000.03	–
298.15 K, m1 = 0.1057	–	1512.8
298.15 K, m1 = 0.1177	1000.77	–
298.15 K, m1 = 0.1479	–	1518.7
298.15 K, m1 = 0.1634	1002.14	–
298.15 K, m1 = 0.1966	–	1525.4
298.15 K, m1 = 0.2013	1003.25	–
298.15 K, m1 = 0.2458	–	1531.5
298.15 K, m1 = 0.2535	1004.78	–
298.15 K, m1 = 0.2904	–	1537.8
298.15 K, m1 = 0.2905	1005.83	–
298.15 K, m1 = 0.3486	–	1545.1
298.15 K, m1 = 0.3496	1007.53	–
298.15 K, m1 = 0.4012	–	1551.1
298.15 K, m1 = 0.4089	1009.11	–
298.15 K, m1 = 0.4523	–	1557.8
298.15 K, m1 = 0.4607	1010.51	–
298.15 K, m1 = 0.5188	1012.11	–
298.15 K, m1 = 0.5271	–	1566.9
303.15 K, m1 = 0.03911	996.915	–
303.15 K, m1 = 0.05766	997.485	–
303.15 K, m1 = 0.07571	998.049	–
303.15 K, m1 = 0.09405	998.596	–
303.15 K, m1 = 0.1177	999.306	–
303.15 K, m1 = 0.1634	1000.64	–
303.15 K, m1 = 0.2013	1001.73	–
303.15 K, m1 = 0.2535	1003.2	–
303.15 K, m1 = 0.2905	1004.25	–
303.15 K, m1 = 0.3496	1005.87	–
303.15 K, m1 = 0.4089	1007.48	–
303.15 K, m1 = 0.4607	1008.89	–
303.15 K, m1 = 0.5188	1010.43	–
308.15 K, m1 = 0.03804	995.245	–
308.15 K, m1 = 0.05959	995.908	–
308.15 K, m1 = 0.07881	996.479	–
308.15 K, m1 = 0.09916	997.101	–
308.15 K, m1 = 0.1199	997.708	–
308.15 K, m1 = 0.1512	998.623	–
308.15 K, m1 = 0.206	1000.16	–
308.15 K, m1 = 0.2462	1001.31	–
308.15 K, m1 = 0.2873	1002.43	–
308.15 K, m1 = 0.359	1004.36	–
308.15 K, m1 = 0.3954	1005.3	–
308.15 K, m1 = 0.4498	1006.76	–
308.15 K, m1 = 0.5188	1008.59	–
313.15 K, m1 = 0.03949	993.444	–
313.15 K, m1 = 0.05959	994.046	–
313.15 K, m1 = 0.07881	994.62	–
313.15 K, m1 = 0.09916	995.217	–
313.15 K, m1 = 0.1199	995.816	–
313.15 K, m1 = 0.1512	996.706	–
313.15 K, m1 = 0.206	998.24	–
313.15 K, m1 = 0.2462	999.361	–
313.15 K, m1 = 0.2873	1000.45	–
313.15 K, m1 = 0.359	1002.39	–
313.15 K, m1 = 0.3954	1003.31	–
313.15 K, m1 = 0.4498	1004.72	–
313.15 K, m1 = 0.5188	1006.52	–

From the NIST ThermoML archive (doi:10.1016/j.jct.2014.07.026)
